The conditions of data set [1]: cited from earlier work.
A short description of data set [2]: Thermogravimetric analysis (TGA), thermal stability. It counts as physicochemical. Conditions: 10° C. min-1, reported at 5% weight loss. The method, then: TGA was utilised to determine thermal stability. Initially the starting materials (LIDO, MA, SA and GMS) were analysed to deduce the degradation temperature. The excipients were exposed to a heating ramp from room temperature (circa 20° C.) to 500° C., at 10° C. min-1.
LIDO and the relevant lipids were weighed and heated at 80° C. until molten. The samples were given 24 hours to cool/solidify before they were ground using a mortar and pestle for 2 min. The resultant systems were heated at 10° C. min-1 from room temperature to 350° C. All TGA experiments were conducted in triplicates, using Perkin-Elmer Aluminum Non-Hermetic DSC pans. Nitrogen (60 mL min-1) was used as the purge gas. The degradation temperature was reported at 5% weight loss. Analysis was performed using TA Universal analysis software.
Consequently, TGA is an essential technique used to inform the suitability of these materials and processing conditions of HME. The thermal degradation temperature was reported at 5% weight loss.

Data set [3] can be described thus: Assessment of drug loading capacity of EVA.
Data set [4] in a line: Lidocaine and myristic acid remaining post-implantation. In kind it is in vivo. Particulars: individual sheep. On the procedure:
The components of the outer coating were dissolved by sonication in dicholoromethane and the volume was then made up to 50 ml. Two ml of this solution was dried for 1 h at 50° C. and reconstituted in 100 ml methanol. The methanolic solutions were appropriately diluted in the mobile phase for assay by LCMS-MS.

A short description of data set [5]: In vivo sheep study, pharmacokinetics of lidocaine and myristic acid. Conditions: FIG. 25.

Each structure is given as a SMILES string. Values joined by “and” are separate entries in the source; they are usually repeats but may differ in a detail not shown here. Equal values may be shown once. Marks after values point to notes of the source that are not given here.

For the compound `CCCCCCCCCCCCCCCCCC(=O)OCC(O)CO` (centres unmarked) [Glycerol Monostearate], in data set [1], the LogP (as a rule, the decadic logarithm of the partition coefficient of the neutral form, usually between octanol and water) was 5.97. In addition, the “Mean Degradation Temperature ± SD” value in data set [2] (listed as GMS) is 197.34 °C and 197.34 ± 8.23 °C.

On to `CCN(CC)CC(=O)Nc1c(C)cccc1C` [Lidocaine, 2-(diethyl-amino)-N-(2,6-dimethylpheny)-acetamide, reference compound], for which the “Lidocaine concentration at which it crystalises out” value in data set [3] (in EVA 33%) is reported as above 10%. In addition, the “Lidocaine concentration over which it crystallises out” value in data set [3] (solvent cast EVA film or EVA polymer implant) was 9-10 % w/w. In addition, the entries for the “Mean Degradation Temperature ± SD” value in data set [2] (listed as LIDO) and in data set [2] (listed as lidocaine) were 164.40 ± 1.30 °C and 164.40 °C, respectively.

`CCCCCCCCCCCCCC(=O)O` [Myristic Acid]: the “Myristic acid % Remaining” value in data set [4] (in co-extrudate after 3 days implantation, mean ± SD n=3) was 10.04 ± 1.82% and 16.91 ± 6.77% and 11.21 ± 0.98%; in data set [4] (in co-extrudate after 7 days implantation, listed as Myristic acid) it was <4.00* %; in data set [4] (in co-extrudate after 7 days implantation, listed as myristic acid) it was “too low to quantify”. Further, the LogP in data set [1] is given as 5.37. Besides, the “Concentration in peritoneal fluid compared to plasma” value in data set [5] is recorded as “higher concentrations again observed in peritoneal fluid”. Besides, the “Mean Degradation Temperature ± SD” value in data set [2] (listed as MA) was 177.55 °C and 177.55 ± 0.82 °C.

Consider `CCCCCCCCCCCCCCCCCC(=O)O` [Stearic Acid], for which the LogP in data set [1] was 7.15. Further, the “Mean Degradation Temperature ± SD” value in data set [2] (listed as SA) is 201.75 °C and 201.75 ± 4.12 °C.

(Values after patent publication US20230036339A1, “BIOACTIVE IMPLANTS FOR DRUG DELIVERY” (The Queen's University of Belfast, priority 2019, published 2023).)
